Several values for one entry are separate records, joined by “and”; a condition that tells them apart may be missing. Equal values may be shown once. Inconclusive results and toxic doses are left out.

The assay concerns BDF1 mice, P388 leukemia ip, median survival T/C. The assay is described as follows: NCI In Vivo Anticancer Drug Screen. Data for tumor model P388 Leukemia (intraperitoneal) in B6D2F1 (BDF1) mice. Particulars: endpoint: median survival time, higher = longer survival. The method in brief:
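Steps: implant the tumour, treat one group with compound and another with vehicle, record survival, then divide treated by control.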

Setting [1] is: dose: 200.0 mg/kg/injection, schedule: Q04DX003 (ip), vehicle: Klucel (hydroxypropylcellulose) (HPC).
Setting [2] is: dose: 100.0 mg/kg/injection, schedule: Q04DX003 (ip), vehicle: saline with Tween-80.
The mark [3] stands for this setting: dose: 200.0 mg/kg/injection, schedule: Q04DX003 (ip), vehicle: saline with Tween-80.
The mark [4] stands for this setting: dose: 400.0 mg/kg/injection, schedule: Q04DX003 (ip), vehicle: saline with Tween-80.
[5] abbreviates: dose: 100.0 mg/kg/injection, schedule: Q01DX009 (ip), vehicle: saline with Tween-80.
Setting [6] is: dose: 200.0 mg/kg/injection, schedule: Q01DX009 (ip), vehicle: saline with Tween-80.
Setting [7] is: dose: 50.0 mg/kg/injection, schedule: Q01DX009 (ip), vehicle: saline with Tween-80.

For the compound `COc1cc2c[n+](C)c3c4cc5c(cc4ccc3c2cc1OC)OCO5`, the T/C is 150 % of control (dose: 1.0 mg/kg/injection, schedule: Q01DX009 (ip), vehicle: water); 161 % of control (dose: 4.0 mg/kg/injection, schedule: Q01DX009 (ip), vehicle: saline); 185 % of control (dose: 5.0 mg/kg/injection, schedule: Q01DX009 (ip), vehicle: saline); 182 % of control (dose: 6.25 mg/kg/injection, schedule: Q01DX009 (ip), vehicle: water); 176 % of control (dose: 8.0 mg/kg/injection, schedule: Q01DX009 (ip), vehicle: saline); 154 % of control (dose: 10.0 mg/kg/injection, schedule: Q01DX005 (ip), vehicle: saline). Moreover, the T/C is, setting by setting: (dose: 10.0 mg/kg/injection, schedule: Q01DX009 (ip), vehicle: saline) 200 % of control; (dose: 10.0 mg/kg/injection, schedule: Q04DX003 (ip), vehicle: saline) 185 % of control; (dose: 12.0 mg/kg/injection, schedule: Q01DX009 (ip), vehicle: water) 177 % of control; (dose: 12.5 mg/kg/injection, schedule: Q01DX009 (ip), vehicle: water) 204 % of control; (dose: 20.0 mg/kg/injection, schedule: Q01DX005 (ip), vehicle: saline) 158 % of control; (dose: 20.0 mg/kg/injection, schedule: Q04DX003 (ip), vehicle: saline) 190 % of control. Also, the T/C is, setting by setting: (dose: 25.0 mg/kg/injection, schedule: Q01DX009 (ip), vehicle: water) 100 % of control; (dose: 28.8 mg/kg/injection, schedule: Q04DX003 (ip), vehicle: Klucel (hydroxypropylcellulose) (HPC)) 193 % of control; (dose: 40.0 mg/kg/injection, schedule: Q01DX005 (ip), vehicle: saline) 183 % of control; (dose: 43.2 mg/kg/injection, schedule: Q04DX003 (ip), vehicle: Klucel (hydroxypropylcellulose) (HPC)) 196 % of control; (dose: 48.0 mg/kg/injection, schedule: Q04DX003 (ip), vehicle: Klucel (hydroxypropylcellulose) (HPC)) 200 % of control; (dose: 50.0 mg/kg/injection, schedule: Q04DX002 (ip), vehicle: Klucel (hydroxypropylcellulose) (HPC)) 225 % of control and 153 % of control. For the same compound, the T/C is, setting by setting: (dose: 55.0 mg/kg/injection, schedule: Q04DX003 (ip), vehicle: other) 172 % of control; (dose: 72.0 mg/kg/injection, schedule: Q04DX003 (ip), vehicle: Klucel (hydroxypropylcellulose) (HPC)) 188 % of control; (dose: 80.0 mg/kg/injection, schedule: Q01DX005 (ip), vehicle: saline) 103 % of control; (dose: 80.0 mg/kg/injection, schedule: Q01DX009 (ip), vehicle: saline) 186 % of control; (dose: 80.0 mg/kg/injection, schedule: Q04DX003 (ip), vehicle: Klucel (hydroxypropylcellulose) (HPC)) 200 % of control; (dose: 80.0 mg/kg/injection, schedule: Q04DX003 (ip), vehicle: saline) 260 % of control. Besides, the T/C runs as follows: (dose: 92.0 mg/kg/injection, schedule: Q04DX003 (ip), vehicle: other) 162 % of control; (dose: 120.0 mg/kg/injection, schedule: Q01DX009 (ip), vehicle: saline) 95 % of control; (dose: 133.3 mg/kg/injection, schedule: Q04DX003 (ip), vehicle: Klucel (hydroxypropylcellulose) (HPC)) 170 % of control; under setting [1], 160 % of control.
With `CCN1C=NNc2ccc(Cl)cc2C1=O`, the T/C is, setting by setting: under setting [2], 97 % of control; under setting [3], 97 % of control; under setting [4], 100 % of control.
For `Cc1ccc(-n2c(O)c(C=N)c(=O)n(-c3ccc(C)cc3)c2=O)cc1`, the T/C is, setting by setting: under setting [5], 104 % of control; under setting [6], 104 % of control; (dose: 400.0 mg/kg/injection, schedule: Q01DX009 (ip), vehicle: saline with Tween-80) 95 % of control.
With `CCCCNP(=O)(N1CC1CC)N1CC1CC` (stereo not given), for the setting “dose: 100.0 mg/kg/injection, schedule: Q04DX003 (ip), vehicle: saline”, the T/C was 122 % of control.
On to `C=C1CC2(CCC(C(C)(C)C)CC2)OC1=O` (stereo not given), for which the T/C is 105 % of control (dose: 100.0 mg/kg/injection, schedule: Q04DX002 (ip), vehicle: saline with Tween-80); 108 % of control (dose: 200.0 mg/kg/injection, schedule: Q04DX002 (ip), vehicle: saline with Tween-80); 97 % of control (dose: 400.0 mg/kg/injection, schedule: Q04DX002 (ip), vehicle: saline with Tween-80).
Consider `CCOC(=O)/C(C#N)=C\C=C\c1ccccc1`, for which the T/C reads like this: (dose: 100.0 mg/kg/injection, schedule: Q04DX003 (ip), vehicle: Klucel (hydroxypropylcellulose) (HPC)) 86 % of control; under setting [1], 90 % of control; (dose: 400.0 mg/kg/injection, schedule: Q04DX003 (ip), vehicle: Klucel (hydroxypropylcellulose) (HPC)) 90 % of control.
Consider `CCCCCC1(C)OCC(C)O1` (stereo not given), for which the T/C was 101 % of control under setting [7], 106 % of control under setting [5] and 109 % of control under setting [6].
In the case of `CCP(=Nc1cc(C(C)(C)C)cc(C(C)(C)C)c1O)(c1ccccc1)c1ccccc1`, the T/C is, setting by setting: under setting [7], 96 % of control; under setting [5], 91 % of control; under setting [6], 89 % of control.
Turning to `O=C(Nc1ccc(C2=NCCN2)cc1)c1ccc(C(=O)Nc2ccc(C3=NCCN3)cc2)c(F)c1`, the T/C under setting [2] was 172 % of control; the T/C under setting [3] was 213 % of control; the T/C (dose: 264.0 mg/kg/injection, schedule: Q04DX003 (ip), vehicle: saline with Tween-80) was 226 % of control; the T/C under setting [4] was 250 % of control and 221 % of control; the T/C (dose: 600.0 mg/kg/injection, schedule: Q04DX003 (ip), vehicle: saline with Tween-80) is 191 % of control.
Regarding `CC(C#N)(Nc1ccccc1)c1ccccc1` (stereo not given), the T/C under setting [2] is 95 % of control, the T/C under setting [3] was 100 % of control and the T/C under setting [4] is 100 % of control.
`CCOC(=O)CC1=NN=C(N)SC1`: the T/C (dose: 100.0 mg/kg/injection, schedule: Q01DX009 (ip), vehicle: saline) is 122 % of control.
On to `O=C(c1ccccc1)c1cc[n+]([O-])cc1`, for which the T/C runs as follows: (dose: 75.0 mg/kg/injection, schedule: Q01DX001 (ip), vehicle: saline sonified) 91 % of control; (dose: 150.0 mg/kg/injection, schedule: Q01DX001 (ip), vehicle: saline sonified) 91 % of control.
For the compound `CCCCN(C(C)(C)C(SSSC(c1ccc(Cl)cc1)C(C)(C)N(CCCC)S(C)(=O)=O)c1ccc(Cl)cc1)S(C)(=O)=O` (stereo not given), the T/C is, setting by setting: (dose: 25.0 mg/kg/injection, schedule: Q04DX003 (ip), vehicle: saline with Tween-80) 100 % of control; (dose: 50.0 mg/kg/injection, schedule: Q04DX003 (ip), vehicle: saline with Tween-80) 100 % of control.

For the origin of these results see PubChem BioAssay AID328 (DTP/NCI, 2004).
